Legend:
[1] = system: Sprague-Dawley rat adipocytes; details: cited from earlier work
[2] = system: WT mice; test: Longer term dosing of 2,3-butanediol to WT mice, with washout cohort; assay type: in vivo
Experimental: Male mice were dosed with 200 mg/kg/day 2,3-butanediol from age 8 weeks to age 29 weeks. Mice were housed 4 to a cage. […], treatment was removed from one cohort, called the ‘washout 6 weeks’. Treatment continued in one cohort, called ‘treatment throughout’. Urine collected 1 week following removal of 2,3-butanediol confirmed the absence of 2,3-butanediol in the washout cohorts. At the end of the experiment blood was collected and plasma isolated and analysed. Mice were culled, and final body weights and epidydimal fat deposits recorded.

[3] = system: male, wild-type C57BL/6 mice; test: Short term (four-week) dosing of 2,3-butanediol in drinking water to wild-type mice; assay type: in vivo; details: 28 days
Experimental: 2,3-butanediol was then administered over a four-week dosing period to wild-type mice. The 2,3-butanediol was delivered to male, wild-type C57BL/6 mice in drinking water, from 13 to 17 weeks of age. Dose delivery estimation was based on mouse average water consumption. Groups of male mice were either untreated, treated with 60, 250 or 600 mg/kg 2,3-butanediol in their drinking water. Water was changed twice weekly. Weights of mice and food intake were recorded. Urine was collected on day 0 (age 13 weeks, pre-treatment) and at 28 days post-treatment (mice aged 17 weeks) and analysed for 2,3-butanediol.
Blood was collected on day 0 (age 13 weeks) and at 28 days post-treatment (mice aged 17 weeks). Plasma was isolated and analysed. At termination of experiment, epidydimal fat pads (EWAT) were weighed and expressed as EWAT:Body weight ratios, […]

[4] = 200 mg/kg/day from age 8 weeks to age 29 weeks, male mice
[5] = 200 mg/kg/day from age 8 weeks, treatment removed at age 22 weeks, 6 week washout on water alone
[6] = 60, 250 or 600 mg/kg in drinking water
[7] = 250 and 600 mg/kg/day doses in drinking water

CC(O)C(C)O (stereo not drawn) [2,3-butanediol]
14C-glucose incorporation into triglyceride glycerol ([1]; at higher concentrations): inhibitor | 14C-glucose incorporation into triglyceride fatty acid [1]: potent inhibitor | fat (EWAT/body weight) [2, 4]: significant reductions | plasma cholesterol [2, 4]: significant reductions | treatment effect on fat (EWAT/body weight) after washout [2, 5]: persistent | treatment effect on plasma cholesterol after washout [2, 5]: persistent | 2,3-butanediol in urine after removal of treatment ([2]; urine collected 1 week following removal of 2,3-butanediol, washout cohorts): absence | plasma cholesterol ([3]; 250 mg/kg/day dose in drinking water): significantly reduced | Epididymal white adipose tissue (EWAT) to body weight ratios ([3]; 250 mg/kg/day dose in drinking water, mice aged 13 to 17 weeks): significantly reduced | plasma alanine aminotransferase [3, 6]: No changes | plasma alkaline phosphatase [3, 6]: No changes | plasma aspartate aminotransferase [3, 6]: No changes | Plasma free fatty acids [3, 7]: significantly reduced | Plasma lactate dehydrogenase [3, 7]: significantly reduced | Plasma triglycerides [3, 7]: significantly reduced
